Assay results taken from ChEMBL document CHEMBL4219225, “Practical application of ligand efficiency metrics in lead optimisation” (Bioorg Med Chem, 2018).
Values after ≈ are worked out from the molar mass of the structure shown.

What was measured:
[1] = Apparent permeability in MDCK cells; type: ADME, cell-based, Canis lupus familiaris; details: dog
[2] = Solubility of the compound at pH 7.4; type: physicochemical; details: buffer
[3] = target: T1, Glucose-dependent insulinotropic receptor (Homo sapiens, UniProt Q8TDV5); assay: Agonist activity at GPR119 (unknown origin); type: functional
T1 sequence (Q8TDV5 whole entry): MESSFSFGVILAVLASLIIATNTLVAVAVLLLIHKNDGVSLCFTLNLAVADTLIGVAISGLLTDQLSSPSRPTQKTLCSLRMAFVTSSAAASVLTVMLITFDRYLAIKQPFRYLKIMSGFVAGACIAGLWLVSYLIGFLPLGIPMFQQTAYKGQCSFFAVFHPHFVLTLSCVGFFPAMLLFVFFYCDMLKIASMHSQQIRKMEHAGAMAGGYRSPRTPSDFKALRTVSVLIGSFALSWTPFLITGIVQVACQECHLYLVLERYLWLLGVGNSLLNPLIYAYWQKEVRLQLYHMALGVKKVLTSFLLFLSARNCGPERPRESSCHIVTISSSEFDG

[4] = target: Voltage-gated inwardly rectifying potassium channel KCNH2 (Homo sapiens, UniProt Q12809); assay: Inhibition of human ERG
Chain of Voltage-gated inwardly rectifying potassium channel KCNH2 (Q12809 whole entry): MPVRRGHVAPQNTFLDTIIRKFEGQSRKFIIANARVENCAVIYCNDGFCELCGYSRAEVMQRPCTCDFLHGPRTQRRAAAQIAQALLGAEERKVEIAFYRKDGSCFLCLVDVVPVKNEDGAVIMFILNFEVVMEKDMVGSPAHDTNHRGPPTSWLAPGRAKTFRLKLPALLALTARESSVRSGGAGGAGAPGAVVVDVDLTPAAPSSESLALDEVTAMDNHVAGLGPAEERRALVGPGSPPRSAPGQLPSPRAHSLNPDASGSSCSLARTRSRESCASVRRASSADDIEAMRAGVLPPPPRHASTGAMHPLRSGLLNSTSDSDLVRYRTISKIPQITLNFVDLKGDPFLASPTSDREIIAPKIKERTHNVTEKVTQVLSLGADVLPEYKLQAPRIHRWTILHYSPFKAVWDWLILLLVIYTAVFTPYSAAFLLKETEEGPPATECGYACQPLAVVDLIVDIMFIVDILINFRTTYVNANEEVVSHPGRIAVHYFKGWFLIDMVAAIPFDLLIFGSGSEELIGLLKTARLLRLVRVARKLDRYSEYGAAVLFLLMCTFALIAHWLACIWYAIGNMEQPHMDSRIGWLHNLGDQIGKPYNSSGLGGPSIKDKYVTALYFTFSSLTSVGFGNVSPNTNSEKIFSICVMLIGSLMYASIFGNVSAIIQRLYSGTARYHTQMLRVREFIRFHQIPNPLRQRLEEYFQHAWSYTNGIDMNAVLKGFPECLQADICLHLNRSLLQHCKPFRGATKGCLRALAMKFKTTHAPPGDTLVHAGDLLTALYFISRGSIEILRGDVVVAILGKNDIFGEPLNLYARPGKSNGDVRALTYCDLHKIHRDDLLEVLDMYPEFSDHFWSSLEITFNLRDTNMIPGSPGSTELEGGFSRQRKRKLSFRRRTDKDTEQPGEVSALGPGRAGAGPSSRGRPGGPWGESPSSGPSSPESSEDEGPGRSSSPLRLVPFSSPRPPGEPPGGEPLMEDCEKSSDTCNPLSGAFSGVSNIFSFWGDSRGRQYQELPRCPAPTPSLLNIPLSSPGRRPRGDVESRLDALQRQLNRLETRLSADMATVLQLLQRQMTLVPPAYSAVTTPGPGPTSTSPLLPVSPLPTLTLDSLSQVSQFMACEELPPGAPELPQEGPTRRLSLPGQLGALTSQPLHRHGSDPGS

Row | Papp [1] [×10⁻⁶ cm/s] | solubility [2] [µM] | EC50 [3] [µM] | SMILES | IC50 [4] [µM]
1 |  | 3.1 (≈ 1.34 µg/mL) | 0.002 | N#Cc1cnccc1COc1cnc(N2CCN(c3noc(C(F)(F)F)n3)CC2)nc1 | 6.31
2 |  | 4800 (≈ 2080 µg/mL) | 0.00501 | N#Cc1cnccc1COc1cnc(N2CCN(c3nc(C(F)(F)F)no3)CC2)nc1 | 6.31
3 |  | 120 (≈ 51.9 µg/mL) | 0.0251 | N#Cc1cnccc1COc1cnc(N2CCN(c3nnc(C(F)(F)F)o3)CC2)nc1 | 20

More lines, now with the values behind:

Row | SMILES | Papp [1] [×10⁻⁶ cm/s] | solubility [2] [µM] | EC50 [3] [µM] | IC50 [4] [µM]
4 | Cc1nc(C)c(-c2ccc(-c3ccc([C@H](C)C(=O)O)cc3Cl)c(F)c2)nc1C(N)=O | 14 |  |  | 
5 | Cc1nc(C)c(-c2ccc(-c3ccc(CC(=O)O)cc3)c(Cl)c2)nc1C(N)=O | 7.4 |  |  | 
